Experiments:
Format in all cases: biochemical
human Src enzyme = target: T1, human Src enzyme (Homo sapiens, UniProt P12931); test: Src enzyme inhibitory activity (time-resolved fluorometry, biotinylated peptide phosphorylation); conditions: biotinylated peptide phosphorylation, read-out: SRC_IC50
T1 construct: purchased Carna Biosciences, Inc. 08-173
Method in brief: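 Compounds were tested for blocking tyrosine phosphorylation of a biotinylated peptide substrate by recombinant human Src. Phosphorylated product was quantified by time-resolved fluorometry using europium cryptate and XL665 conjugates, and IC50 was calculated against the compound-free control.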

human Lck enzyme = target: T2, human Lck enzyme (Homo sapiens, UniProt P06239); test: Lck enzyme inhibitory activity (time-resolved fluorometry, biotinylated peptide phosphorylation); conditions: biotinylated peptide phosphorylation, read-out: LCK_IC50
T2 construct: purchased Carna Biosciences, Inc. 08-170
Method in brief: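 Readout pairs a europium cryptate-labelled anti-phosphotyrosine antibody with XL665-streptavidin, measured by time-resolved fluorescence. IC50 derived from percent inhibition against untreated controls.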

human Yes1 enzyme = target: T3, human Yes1 enzyme (Homo sapiens, UniProt P07947); test: Yes1 enzyme inhibitory activity (time-resolved fluorometry, biotinylated peptide phosphorylation); conditions: biotinylated peptide phosphorylation, read-out: YES_IC50
T3 construct: made in house
Method in brief: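 Inhibition was expressed against a compound-free control to give IC50, using TR-FRET read-out (Eu-cryptate anti-pTyr antibody, streptavidin-XL665).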

T2 sequence (P06239 whole entry): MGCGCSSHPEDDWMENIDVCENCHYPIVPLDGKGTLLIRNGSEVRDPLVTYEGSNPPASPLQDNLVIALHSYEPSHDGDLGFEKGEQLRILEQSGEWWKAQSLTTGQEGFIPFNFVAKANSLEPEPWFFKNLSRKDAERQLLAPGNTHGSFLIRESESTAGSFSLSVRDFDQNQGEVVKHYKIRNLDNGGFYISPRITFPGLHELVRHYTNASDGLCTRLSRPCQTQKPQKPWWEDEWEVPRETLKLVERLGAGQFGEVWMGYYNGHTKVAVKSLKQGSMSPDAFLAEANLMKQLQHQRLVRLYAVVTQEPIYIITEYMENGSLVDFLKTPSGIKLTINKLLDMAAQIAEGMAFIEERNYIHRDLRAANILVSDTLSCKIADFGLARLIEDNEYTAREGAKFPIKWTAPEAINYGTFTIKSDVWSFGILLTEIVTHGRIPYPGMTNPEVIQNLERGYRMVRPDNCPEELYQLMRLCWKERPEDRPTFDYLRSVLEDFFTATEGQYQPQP
T3 sequence (P07947 whole entry): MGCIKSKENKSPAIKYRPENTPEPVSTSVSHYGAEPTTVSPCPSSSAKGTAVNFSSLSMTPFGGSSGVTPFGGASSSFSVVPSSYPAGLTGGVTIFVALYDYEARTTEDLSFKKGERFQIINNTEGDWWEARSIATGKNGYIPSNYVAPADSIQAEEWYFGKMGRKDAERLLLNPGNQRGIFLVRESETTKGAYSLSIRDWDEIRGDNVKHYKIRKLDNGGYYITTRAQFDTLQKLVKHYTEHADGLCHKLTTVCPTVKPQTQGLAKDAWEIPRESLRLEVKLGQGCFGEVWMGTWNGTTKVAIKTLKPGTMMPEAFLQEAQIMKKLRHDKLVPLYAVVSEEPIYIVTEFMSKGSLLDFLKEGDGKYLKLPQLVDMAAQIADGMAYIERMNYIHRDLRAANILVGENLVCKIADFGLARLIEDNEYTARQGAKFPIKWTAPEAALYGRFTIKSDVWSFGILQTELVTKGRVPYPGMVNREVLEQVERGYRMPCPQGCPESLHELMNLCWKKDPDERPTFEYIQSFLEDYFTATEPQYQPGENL
T1 sequence (P12931 whole entry): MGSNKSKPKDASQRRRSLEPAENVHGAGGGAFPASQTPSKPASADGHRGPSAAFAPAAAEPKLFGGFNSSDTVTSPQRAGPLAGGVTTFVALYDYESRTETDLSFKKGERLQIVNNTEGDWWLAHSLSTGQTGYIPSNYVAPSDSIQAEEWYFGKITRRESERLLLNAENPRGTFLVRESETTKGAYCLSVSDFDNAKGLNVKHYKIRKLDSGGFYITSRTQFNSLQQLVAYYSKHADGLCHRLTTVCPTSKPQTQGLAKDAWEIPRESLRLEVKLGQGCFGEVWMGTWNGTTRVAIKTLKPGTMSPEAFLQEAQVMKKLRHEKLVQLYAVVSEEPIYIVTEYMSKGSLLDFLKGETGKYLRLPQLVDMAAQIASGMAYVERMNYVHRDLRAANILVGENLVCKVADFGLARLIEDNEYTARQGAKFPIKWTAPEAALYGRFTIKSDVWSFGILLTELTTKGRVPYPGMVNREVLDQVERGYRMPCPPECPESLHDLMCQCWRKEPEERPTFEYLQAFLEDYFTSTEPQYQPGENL

IC50 (human Src enzyme)	IC50 (human Lck enzyme)	IC50 (human Yes1 enzyme)	SMILES
66 nM	3.2 nM	2.7 nM	Cc1cc(Oc2c(F)cccc2F)ncc1-n1ncc(C(=O)c2cc3cc(F)c(N4C(=O)CNC4=O)cc3[nH]2)c1N [Example 5-1-405, 3-[2-[5-amino-1-[6-(2,6-difluorophenoxy)-4-methylpyridin-3-yl]pyrazole-4-carbonyl]-5-fluoro-1H-indol-6-yl]imidazolidine-2,4-dione]
75 nM	3.1 nM	2.2 nM	Cc1cc(Oc2c(F)cccc2F)ncc1-n1ncc(C(=O)c2cc3cc(F)c(N4C(=O)N[C@@H](C)C4=O)cc3[nH]2)c1N [Example 5-1-406, (5S)-3-[2-[5-amino-1-[6-(2,6-difluorophenoxy)-4-methylpyridin-3-yl]pyrazole-4-carbonyl]-5-fluoro-1H-indol-6-yl]-5-methylimidazolidine-2,4-dione]
74 nM	3.5 nM	2.2 nM	Cc1cc(Oc2c(F)cccc2F)ncc1-n1ncc(C(=O)c2cc3cc(F)c(N4C(=O)N[C@@H](CO)C4=O)cc3[nH]2)c1N [Example 5-1-407, (5S)-3-[2-[5-amino-1-[6-(2,6-difluorophenoxy)-4-methylpyridin-3-yl]pyrazole-4-carbonyl]-5-fluoro-1H-indol-6-yl]-5-(hydroxymethyl) imidazolidine-2,4-dione]
43 nM	6.1 nM	1.2 nM	Cc1cc2cc(C(=O)c3cnn(-c4ccc(Oc5ccccc5F)cc4C)c3N)[nH]c2cc1N1C(=O)NC2(CCOCC2)C1=O [Example 5-1-408, 3-[2-[5-amino-1-[4-(2-fluorophenoxy)-2-methylphenyl]pyrazole-4-carbonyl]-5-methyl-1H-indol-6-yl]-8-oxa-1,3-diazaspiro[4.5] decane-2,4-dione]
160 nM	20 nM	3.1 nM	Cc1cc2cc(C(=O)c3cnn(-c4ccc(Oc5ccccc5F)cc4C)c3N)[nH]c2cc1N1C(=O)NC2(CCCCC2)C1=O [Example 5-1-409, 3-[2-[5-amino-1-[4-(2-fluorophenoxy)-2-methylphenyl]pyrazole-4-carbonyl]-5-methyl-1H-indol-6-yl]-1,3-diazaspiro[4.5]decane-2,4-dione]
22 nM	2.9 nM	0.56 nM	Cc1cc2cc(C(=O)c3cnn(-c4ccc(Oc5ccccc5F)cc4C)c3N)[nH]c2cc1N1C(=O)NC2(COC2)C1=O [Example 5-1-410, 7-[2-[5-amino-1-[4-(2-fluorophenoxy)-2-methylphenyl]pyrazole-4-carbonyl]-5-methyl-1H-indol-6-yl]-2-oxa-5,7-diazaspiro[3.4] octane-6,8-dione]
37 nM	4.2 nM	0.73 nM	Cc1cc(Oc2ccccc2F)ccc1-n1ncc(C(=O)c2cc3cc(F)c(N4C(=O)N[C@@H](C)C4=O)cc3[nH]2)c1N [Example 5-1-411, (5S)-3-[2-[5-amino-1-[4-(2-fluorophenoxy)-2-methylphenyl]pyrazole-4-carbonyl]-5-fluoro-1H-indol-6-yl]-5-methylimidazolidine-2,4-dione]
100 nM	17 nM	3 nM	Cc1cc(Oc2ccccc2F)ccc1-n1ncc(C(=O)c2cc3cc(F)c(N4C(=O)NC(C)(C(F)(F)F)C4=O)cc3[nH]2)c1N (stereo not drawn) [Example 5-1-412, 3-[2-[5-amino-1-[4-(2-fluorophenoxy)-2-methylphenyl]pyrazole-4-carbonyl]-5-fluoro-1H-indol-6-yl]-5-methyl-5-(trifluoromethyl) imidazolidine-2,4-dione]
90 nM	17 nM	1.5 nM	Cc1cc(Oc2ccccc2F)ncc1-n1ncc(C(=O)c2cc3cc(F)c(N4CC5(CCOCC5)NS4(=O)=O)cc3[nH]2)c1N [Example 5-1-413, [5-amino-1-[6-(2-fluorophenoxy)-4-methylpyridin-3-yl]pyrazol-4-yl]-[6-(2,2-dioxo-8-oxa-2λ6-thia-1,3-diazaspiro[4.5]decan-3-yl)-5-fluoro-1H-indol-2-yl]methanone]
330 nM	110 nM	5.3 nM	COc1cccc(S(=O)(=O)Nc2cc3[nH]c(C(=O)c4cnn(-c5ccc(Oc6ccccc6F)cc5C)c4N)cc3cc2OCC(F)F)c1 [Example 5-1-414, N-[2-[5-amino-1-[4-(2-fluorophenoxy)-2-methylphenyl]pyrazole-4-carbonyl]-5-(2,2-difluoroethoxy)-1H-indol-6-yl]-3-methoxybenzenesulfonamide]
280 nM	110 nM	5.9 nM	Cc1cc(Oc2ccccc2F)ccc1-n1ncc(C(=O)c2cc3cc(OCC(F)F)c(NS(=O)(=O)c4cc(F)cc(F)c4)cc3[nH]2)c1N [Example 5-1-415, N-[2-[5-amino-1-[4-(2-fluorophenoxy)-2-methylphenyl]pyrazole-4-carbonyl]-5-(2,2-difluoroethoxy)-1H-indol-6-yl]-3,5-difluorobenzenesulfonamide]
210 nM	58 nM	3.4 nM	Cc1cc(Oc2ccccc2F)ccc1-n1ncc(C(=O)c2cc3cc(OCC(F)F)c(NS(=O)(=O)c4cccc(C#N)c4)cc3[nH]2)c1N [Example 5-1-416, N-[2-[5-amino-1-[4-(2-fluorophenoxy)-2-methylphenyl]pyrazole-4-carbonyl]-5-(2,2-difluoroethoxy)-1H-indol-6-yl]-3-cyanobenzenesulfonamide]
240 nM	130 nM	5.8 nM	Cc1cc(Oc2ccccc2F)ccc1-n1ncc(C(=O)c2cc3cc(OCC(F)F)c(NS(=O)(=O)c4cccc(Cl)c4)cc3[nH]2)c1N [Example 5-1-417, N-[2-[5-amino-1-[4-(2-fluorophenoxy)-2-methylphenyl]pyrazole-4-carbonyl]-5-(2,2-difluoroethoxy)-1H-indol-6-yl]-3-chlorobenzenesulfonamide]
78 nM	21 nM	1.4 nM	Cc1cc(Oc2ccccc2F)ccc1-n1ncc(C(=O)c2cc3cc(OCC(F)F)c(NS(=O)(=O)c4cccnc4)cc3[nH]2)c1N [Example 5-1-418, N-[2-[5-amino-1-[4-(2-fluorophenoxy)-2-methylphenyl]pyrazole-4-carbonyl]-5-(2,2-difluoroethoxy)-1H-indol-6-yl]pyridine-3-sulfonamide]
790 nM	220 nM	5.6 nM	COc1cccc(S(=O)(=O)Nc2cc3[nH]c(C(=O)c4cnn(-c5cnc(Oc6ccccc6F)cc5C)c4N)cc3cc2OCC(F)F)c1 [Example 5-1-419, N-[2-[5-amino-1-[6-(2-fluorophenoxy)-4-methylpyridin-3-yl]pyrazole-4-carbonyl]-5-(2,2-difluoroethoxy)-1H-indol-6-yl]-3-methoxybenzenesulfonamide]
600 nM	160 nM	6.3 nM	Cc1cc(Oc2ccccc2F)ncc1-n1ncc(C(=O)c2cc3cc(OCC(F)F)c(NS(=O)(=O)c4cc(F)cc(F)c4)cc3[nH]2)c1N [Example 5-1-420, N-[2-[5-amino-1-[6-(2-fluorophenoxy)-4-methylpyridin-3-yl]pyrazole-4-carbonyl]-5-(2,2-difluoroethoxy)-1H-indol-6-yl]-3,5-difluorobenzenesulfonamide]

— patent publication US10479780B2, “Aminopyrazole derivatives” (Chugai Seiyaku Kabushiki Kaisha, priority 2015, dated 2019)
